The NIST ThermoML archive (doi:10.1021/je200830j)
± gives the expanded uncertainty stated by the source.

Columns and labels:
[1] = 101.33 kPa, Liquid; for mass density: Vibrating tube method; for viscosity: Vibrating wire viscometry
[2] = xn = mol fraction of the nth substance listed; conditions: 101 kPa, Liquid, Capillary tube (Ostwald / Ubbelohde) method

CCCCCCCCCCCCCC[P+](CCCCCC)(CCCCCC)CCCCCC.N#C[N-]C#N [tetradecyl(trihexyl)phosphonium dicyanamide]
[1]
Conditions	mass density [kg/m3]	viscosity [mPa·s]
290.66 K	902.3 ± 1.9	–
293.14 K	–	505.9 ± 28
293.15 K	900.9 ± 1.9	–
293.16 K	900.9 ± 1.9	–
295.65 K	899.5 ± 1.9	–
295.66 K	899.5 ± 1.9	–
298.15 K	898 ± 1.9	–
298.16 K	898 ± 1.9	–
298.2 K	–	378 ± 20
300.65 K	896.6 ± 1.9	–
300.66 K	896.6 ± 1.9	–
303.15 K	895.1 ± 1.9	–
303.16 K	895.1 ± 1.9	–
303.18 K	–	288 ± 14
305.65 K	893.7 ± 1.9	–
308.15 K	892.3 ± 1.9	–
308.16 K	892.3 ± 1.9	–
308.2 K	–	219.9 ± 10
310.65 K	890.9 ± 1.9	–
310.66 K	890.9 ± 1.9	–
313.15 K	889.5 ± 1.9	–
313.16 K	889.5 ± 1.9	–
313.18 K	–	171.1 ± 7.8
315.65 K	888.1 ± 1.9	–
318.15 K	886.7 ± 1.9	–
318.19 K	–	134.4 ± 6
320.65 K	885.3 ± 1.9	–

CCCCCCCCCCCCCC[P+](CCCCCC)(CCCCCC)CCCCCC.N#C[N-]C#N [tetradecyl(trihexyl)phosphonium dicyanamide] + O
[2]
Conditions	viscosity [mPa·s]
298.17 K, x2 = 0.275	372.8 ± 19
298.17 K, x2 = 0.4	362.7 ± 21
303.11 K, x2 = 0.198	284.53 ± 14
303.13 K, x2 = 0.275	282.44 ± 14
308.09 K, x2 = 0.275	217.15 ± 10
317.92 K, x2 = 0.198	135.23 ± 6
